Measurements reported in paper PMC4942781, “A sodium channel inhibitor ISTX-I with a novel structure provides a new hint at the evolutionary link between two toxin folds” (Scientific Reports, 2016).
“Also recorded” adds a separate entry of the source. Bridge positions count the residues as written; N and C are the ends. Ends that are not written are not given here.

Assays:
hNav1.5 = test: Whole-cell patch clamp, hNav1.5 in HEK293T cells; format: cell-based, human; conditions: 10 μM ISTX-I; 50 ms step to -10 mV from -80 mV
Experimental: (§1) HEK293T (human embryonic kidney) cells were grown in DMEM containing 10% heat-inactivated FBS at 37 °C in a 5% CO2 incubator. The cDNA genes encoding human (h)Nav1.1, (h)Nav1.2, (h)Nav1.3, (h)Nav1.4, (h)Nav1.5, (h)Nav1.6 and (h)Nav1.7 were transiently transfected into HEK293T cells for electrophysiology using Lipofectamine-2000 (Invitrogen) in serum-reduced medium (Opti-MEM, Invitrogen) following the manufacturer’s instructions. The auxiliary subunits hβ1 and enhanced green florescent protein plasmids were cotransfected into HEK293T cells to increase the current density and efficiently select cells with green florescent protein for whole-cell patch-clamp recordings. After 12 h, the HEK293T cells were used for electrophysiological analysis.
DRG neurons with a large diameter (>[…]) and those with a relatively small diameter (<[…]) were chosen by measuring TTX-s and TTX-r currents, respectively. […] Potassium, calcium, and sodium currents were recorded in experimental cells using whole-cell patch-clamp recordings at room temperature, which were performed with an HEK EPC10 patch-clamp amplifier. […] Experimental data were acquired and analyzed using the programs patch master and Sigmaplot 9.0 (Sigma, USA). […]
Currents were recorded from experimental cells using whole-cell patch clamptechnique at room temperature (22–25 °C). […]

hNav1.7 = target: T1, hNav1.7 (Homo sapiens, UniProt Q15858); test: Whole-cell patch clamp, hNav1.7 in HEK293T cells; format: cell-based
T1 construct: expressed in transfected cells; host or cells: HEK293T cells, transient transfection (Lipofectamine-2000)
Experimental: Figure 4 Effects of ISTX-I expressed in HEK293 cells. Current traces were evoked with a 50ms step depolarization to −10 mV from a holding potential of −80 mV every 5s. […] (E) Steady-state inactivation of the hNav1.7 channel before (solid circles) and after (open circles) the application of 10 μM ISTX-I (n = 5).
The effects of ISTX-I on the activation and inactivation kinetics of hNav1.7 were also analyzed. The current-voltage relationships were determined for Nav1.7 channels using step depolarization ranging from −80 to +40 mV from a holding potential of −80 mV.
as §1
DRG neurons with a large diameter (>[…]) and those with a relatively small diameter (<[…]) were chosen by measuring TTX-s and TTX-r currents, respectively. Meanwhile, TTX (final concentration at 100 nM) was used to separate TTX-r sodium currents from TTX-s sodium currents. Suction pipettes (2.0–4.0 MΩ) were made of borosilicate glass capillary tubes with two-step pulling on a vertical micropipette puller (PC-10, Narishige). Potassium, calcium, and sodium currents were recorded in experimental cells using whole-cell patch-clamp recordings at room temperature, which were performed with an HEK EPC10 patch-clamp amplifier. The P/4 protocol was used to subtract linear capacitive and leakage currents. Experimental data were acquired and analyzed using the programs patch master and Sigmaplot 9.0 (Sigma, USA). All of the data points represent the mean ± SE (n = the number of separate experimental cells examined). Dose-response curves were fitted using the following Hill logistic equation: y = 1 − (1 − fmax)/[1 + ([Tx]/IC50)^n] in which n is an empirical Hill coefficient and fmax is the fraction of current resistant to inhibition at high toxin (Tx) concentrations.
Electrophysiological studies.
Currents were recorded from experimental cells using whole-cell patch clamptechnique at room temperature (22–25 °C). The patch pipettes were fabricated from borosilicate glass tubing using a two-stage vertical microelectrode puller (PC-10, Narishige, Japan). […]

[1] = 5 μM ISTX-I, step depolarization from −80 to +40 mV, holding −80 mV

T1 sequence (Q15858 whole entry): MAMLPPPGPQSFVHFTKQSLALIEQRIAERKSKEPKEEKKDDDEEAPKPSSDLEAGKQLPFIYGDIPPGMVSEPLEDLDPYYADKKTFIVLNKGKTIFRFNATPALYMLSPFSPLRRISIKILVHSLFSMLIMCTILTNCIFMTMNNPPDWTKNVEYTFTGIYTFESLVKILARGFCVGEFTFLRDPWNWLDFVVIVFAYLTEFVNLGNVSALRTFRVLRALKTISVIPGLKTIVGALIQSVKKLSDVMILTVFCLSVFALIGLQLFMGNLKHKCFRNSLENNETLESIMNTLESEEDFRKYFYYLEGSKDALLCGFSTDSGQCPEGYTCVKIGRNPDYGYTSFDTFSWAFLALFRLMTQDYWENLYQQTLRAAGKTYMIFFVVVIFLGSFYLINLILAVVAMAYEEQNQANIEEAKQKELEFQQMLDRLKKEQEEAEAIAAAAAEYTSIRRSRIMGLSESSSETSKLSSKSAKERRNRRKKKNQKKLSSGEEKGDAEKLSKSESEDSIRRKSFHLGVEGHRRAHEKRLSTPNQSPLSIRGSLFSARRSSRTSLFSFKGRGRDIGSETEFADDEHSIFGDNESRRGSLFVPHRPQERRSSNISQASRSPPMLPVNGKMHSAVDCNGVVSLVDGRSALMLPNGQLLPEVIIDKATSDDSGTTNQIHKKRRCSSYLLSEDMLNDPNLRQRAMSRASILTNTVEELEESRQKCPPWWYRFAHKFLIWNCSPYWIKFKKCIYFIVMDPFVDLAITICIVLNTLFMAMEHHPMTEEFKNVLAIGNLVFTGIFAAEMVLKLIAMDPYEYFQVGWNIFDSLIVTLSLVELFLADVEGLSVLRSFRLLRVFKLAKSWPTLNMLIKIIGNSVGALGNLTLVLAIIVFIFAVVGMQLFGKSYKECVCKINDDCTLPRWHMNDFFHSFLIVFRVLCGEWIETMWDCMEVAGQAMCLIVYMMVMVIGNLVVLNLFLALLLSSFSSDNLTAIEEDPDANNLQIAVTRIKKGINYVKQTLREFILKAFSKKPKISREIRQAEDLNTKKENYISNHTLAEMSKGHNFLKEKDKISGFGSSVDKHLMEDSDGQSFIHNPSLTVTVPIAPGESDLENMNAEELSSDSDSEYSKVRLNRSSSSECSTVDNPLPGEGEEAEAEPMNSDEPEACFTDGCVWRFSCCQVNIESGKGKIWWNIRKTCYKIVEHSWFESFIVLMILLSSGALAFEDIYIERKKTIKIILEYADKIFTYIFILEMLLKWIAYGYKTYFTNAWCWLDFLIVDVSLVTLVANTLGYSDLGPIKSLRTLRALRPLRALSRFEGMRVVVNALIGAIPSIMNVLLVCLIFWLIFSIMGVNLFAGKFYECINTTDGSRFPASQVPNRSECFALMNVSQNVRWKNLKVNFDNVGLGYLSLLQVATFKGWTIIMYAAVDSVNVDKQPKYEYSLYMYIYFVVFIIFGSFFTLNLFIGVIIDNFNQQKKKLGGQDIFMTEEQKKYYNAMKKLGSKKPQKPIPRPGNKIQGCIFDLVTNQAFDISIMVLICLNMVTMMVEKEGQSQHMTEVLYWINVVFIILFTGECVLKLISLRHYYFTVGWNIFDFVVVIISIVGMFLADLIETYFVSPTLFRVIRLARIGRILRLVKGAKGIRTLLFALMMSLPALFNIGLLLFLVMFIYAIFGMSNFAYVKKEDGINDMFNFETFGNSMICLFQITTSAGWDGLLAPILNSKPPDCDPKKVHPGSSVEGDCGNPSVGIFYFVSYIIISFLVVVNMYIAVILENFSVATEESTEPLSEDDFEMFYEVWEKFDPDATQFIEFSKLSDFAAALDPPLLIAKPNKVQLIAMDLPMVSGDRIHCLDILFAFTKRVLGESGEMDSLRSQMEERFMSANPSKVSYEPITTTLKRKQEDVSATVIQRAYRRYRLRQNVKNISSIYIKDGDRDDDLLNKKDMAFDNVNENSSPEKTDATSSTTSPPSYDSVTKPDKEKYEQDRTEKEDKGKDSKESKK
T1 sequence (Q07699 19-218, further chain): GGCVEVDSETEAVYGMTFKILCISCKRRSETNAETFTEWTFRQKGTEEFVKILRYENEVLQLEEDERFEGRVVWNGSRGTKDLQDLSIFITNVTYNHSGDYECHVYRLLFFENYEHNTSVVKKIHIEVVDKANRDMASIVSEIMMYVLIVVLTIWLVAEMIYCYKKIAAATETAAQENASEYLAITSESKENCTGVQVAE

Sequence: LCSENGDCAADECCVDTVFEGDMVTRSCEKTTGNFTECPGLTPIA (disulfide 2-14, 8-28, 13-38) [ISTX-I]
- effect on hNav1.5 (hNav1.5): no effect
- effect on hNav1.7 channel currents (hNav1.7; 1 μM ISTX-I, 50 ms step to −10 mV from −80 mV every 5 s): significantly depressed; also recorded: Inhibition of hNav1.7
- shift of conductance–voltage (G-V) curve (hNav1.7; [1]): no effect; also recorded: did not shift
- shift of current-voltage (I-V) curve (hNav1.7; [1]): no effect; also recorded: did not shift
- shift of steady-state inactivation curve (hNav1.7; 10 μM ISTX-I, hNav1.7, n = 5): approximately −10 mV
